What is called pIC50 is the negative decadic logarithm of the IC50, by convention in mol/L.

The record followed here is patent US10617680B2 (CELGENE QUANTICEL RESEARCH, INC., priority 2017, dated 2020).

The structures appear in SMILES notation. pIC50: −log10 of the molar value.

Chain of CBP (Q92793 1081-1197): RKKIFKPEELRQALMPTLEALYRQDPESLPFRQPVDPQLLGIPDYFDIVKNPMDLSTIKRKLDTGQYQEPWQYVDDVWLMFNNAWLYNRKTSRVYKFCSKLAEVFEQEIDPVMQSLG

The first assay has as its target CBP (Homo sapiens (Human), UniProt Q92793). Nature of the assay: In vitro CBP inhibition (AlphaScreen, biotinylated H4-tetraacetyl peptide). As to conditions: AlphaScreen, Table 29; read-out: CBP IC50. The format is binding. The method, then: The CBP-inhibitory activity of the compounds described herein was determined by calculating the IC50. More specifically, CBP inhibitor activity was assayed as follows: CBP was cloned and expressed in E. coli as His-tag protein and purified by Nickel affinity and gel-filtration chromatography. […] CBP binding and inhibition is assessed by monitoring the interaction of biotinylated H4-tetraacetyl peptide (AnaSpec, H4K5/8/12/16(Ac), biotin-labeled) with the target using the AlphaScreen technology (Perkin Elmer). In a 384-well ProxiPlate CBP (50 nM final) was combined with peptide (20 nM final) in 50 mM HEPES (pH 7.3), 10 mM NaCl, 0.25 mM TCEP, 0.1% (w/v) BSA, and 0.005% (w/v) Brij-35 either in the presence of DMSO (final 0.4% DMSO) or compound dilution series in DMSO. After 20 min incubation at room temp, Alpha-streptavidin donor beads and Nickel Chelate acceptor beads were added to a final concentration of 5 μg/mL.
The ability of the compounds disclosed herein to inhibit CBP activity was quantified and the respective IC50 value determined.
In general terms: Bead proximity is the source of the signal in Alpha formats.
As to `Cn1cc(-c2cnn(CC3CC3)c2)c(-c2ccc(Cl)cc2)cc1=O` [Example 153, 4-(4-chloro-phenyl)-5-(1-cyclopropylmethyl-1H-pyrazol-4-yl)-1-methyl-1H-pyridin-2-one], the pIC50 was > 6.30.
For the compound `Cn1ccc(-c2cc(=O)n(C)cc2-c2cnn(-c3cccc(C4CC4)c3C#N)c2)cc1=O` [Example 380, 2-cyclopropyl-6-[4-[1-methyl-4-(1-methyl-2-oxo-4-pyridyl)-6-oxo-3-pyridyl]pyrazol-1-yl]benzonitrile], the pIC50 was > 6.30.
Consider `Cc1cccc(C)c1-c1cc(=O)n(C)cc1-c1cnn(Cc2ccccc2)c1` [Example 189, 5-(1-Benzyl-1H-pyrazol-4-yl)-4-(2,6-dimethyl-phenyl)-1-methyl-1H-pyridin-2-one], for which the pIC50 is < 5.30.
`Cn1cc(-c2cnn(Cc3ccccc3)c2)c(-c2ccccn2)cc1=O` [Example 131, 5′-(1-benzyl-1H-pyrazol-4-yl)-1′-methyl-[2,4′-bipyridin]-2′(1′H)-one]: the pIC50 was 5.30 to 6.30.
`CC(=O)NC[C@H]1CCN(c2cc(=O)n(C)cc2-c2cnn(Cc3ccccc3)c2)C1` (stereo in doubt) [Example 90, N-{1-[5-(1-benzyl-1H-pyrazol-4-yl)-1-methyl-2-oxo-1,2-dihydro-pyridin-4-yl]-pyrrolidin-3-yl-methyl}-acetamide]: the negative-log IC50 (pIC50) is 5.30 to 6.30.
For `Cn1cc(-c2cnn(-c3cccc(Cl)c3C#N)c2)c(-c2ccc(C3CC3)nc2)cc1=O` [Example 366, 2-chloro-6-[4-[4-(6-cyclopropyl-3-pyridyl)-1-methyl-6-oxo-3-pyridyl]pyrazol-1-yl]benzonitrile], the pIC50 was > 6.30.
For the compound `Cn1cc(-c2cnn(Cc3ccccc3)c2)c(OCCC(F)(F)F)cc1=O` [Example 92, 5-(1-benzyl-1H-pyrazol-4-yl)-1-methyl-4-(3,3,3-trifluoro-propoxy)pyridin-2(1H)-one], the pIC50 is > 6.30.
For the compound `COCCNc1ncc(-c2cc(=O)n(C)cc2-c2cnn(C(C)c3ccccc3)c2)cn1` (centres unmarked) [Example 312, 4-(2-((2-methoxyethyl)amino)pyrimidin-5-yl)-1-methyl-5-(1-(1-phenylethyl)-1H-pyrazol-4-yl)pyridin-2(1H)-one], the pIC50 is > 6.30.
In the case of `CC(c1cccc(C#N)c1)n1cc(-c2ccc(=O)n(C)c2)cn1` (centres unmarked) [Example 16, 3-(1-(4-(1-methyl-6-oxo-1,6-dihydropyridin-3-yl)-1H-pyrazol-1-yl)ethyl)benzonitrile], the pIC50 was 5.30 to 6.30.
The same measure, in the same setting: in the case of `CC(=O)N[C@H]1CCN(c2cc(=O)n(C)cc2-c2cnn(Cc3ccccc3)c2)C1` [Example 73, (S)-N-(1-(5-(1-benzyl-1H-pyrazol-4-yl)-1-methyl-2-oxo-1,2-dihydropyridin-4-yl)pyrrolidin-3-yl) acetamide] it was 5.30 to 6.30; in that of `COc1ccc(C(=O)O)c(-n2cc(-c3cn(C)c(=O)cc3-c3ccc(F)cc3)cn2)c1` [Example 269, 2-{4-[4-(4-Fluoro-phenyl)-1-methyl-6-oxo-1,6-dihydro-pyridin-3-yl]-pyrazol-1-yl}-4-methoxy-benzoic acid], > 6.30; in that of `CNS(=O)(=O)C1CCN(c2cc(=O)n(C)cc2-c2cnn(Cc3ccccc3)c2)C1` (centres unmarked) [Example 172, 1-(5-(1-benzyl-1H-pyrazol-4-yl)-1-methyl-2-oxo-1,2-dihydropyridin-4-yl)-N-methylpyrrolidine-3-sulfonamide], > 6.30.
Still for that read-out and setting: next, `Cn1ccc(-c2cc(=O)n(C)cc2-c2cnn(-c3ccccc3C#N)c2)cc1=O` [Example 221, 2-[4-(1,1′-Dimethyl-6,2′-dioxo-1,6,1′,2′-tetrahydro-[4,4′]bipyridinyl-3-yl)-pyrazol-1-yl]-benzonitrile]: > 6.30.

Staying with this assay, now noted: CBP versus BRD4.
As to `Cn1cc(-c2cnn(Cc3ccccc3)c2)c(-n2cccc2)cc1=O` [5-(1-benzyl-1H-pyrazol-4-yl)-1-methyl-4-(1H-pyrrol-1-yl)pyridin-2(1H)-one], the “IC50 for CBP compared with BRD4 (selectivity)” value is given as “lower IC50 for CBP than for BRD4”.
